Experimental data as given in publication PMC6888270 (International Journal of Molecular Sciences, 2019).
Square brackets hold non-standard residues; d marks the D form. Peptide text beside a SMILES is read from it. Phe(4-Cl) = N[C@@H](Cc1ccc(Cl)cc1)C(=O)O; d2Nal = N[C@H](Cc1ccc2ccccc2c1)C(=O)O; d(hCit) = NC(=O)NCCCC[C@@H](N)C(=O)O; Lys(iPr) = CC(C)NCCCC[C@H](N)C(=O)O; d3Pal = N[C@H](Cc1cccnc1)C(=O)O

Legend:
[1] = test system: β-catenin activation; assay: Immunofluorescence of active β-catenin in HEK293/GnRHR cells; type: cell-based, human; details: 1 µM GnRH + 1 µM antagonist, 1 h
Experimental: In order to evaluate the activation of phospho-proteins and β-catenin by Western blotting and immunofluorescence, 1 × 10^5 HEK293 cells were transiently transfected in a 24-well plate. To this purpose, 500 ng of GnRHR-HA-encoding vector diluted in 2 µL/well Lipofectamine® 2000 Transfection Reagent (Invitrogen) were used, according to the manufacturer’s instructions. Transfected HEK293 cells (HEK293/GnRHR) were cultured for 48 h and maintained over-night in serum-free medium before experiments.
3 × 10^4 HEK293/GnRHR and mock-transfected HEK293 cells (negative control) were plated on gelatine-treated slides. […] As a positive control, cells were treated for 16 h with 100 nM of the selective glycogen synthase kinase 3 (GSK3) inhibitor, CHIR99021 (Sigma-Aldrich), which stabilizes free cytosolic β-catenin [68]. After stimulations, cells were washed in PBS with Ca^2+/Mg^2+ and fixed for 20 min in paraformaldehyde 4%/PBS. Cell monolayers were washed by PBS and permeabilized using 0.1% Triton X-100. Samples were incubated in 4% bovine serum albumin (BSA)/PBS, for 1 h at room temperature (RT), before incubation with a mouse primary antibody targeting β-catenin (#05-665, 1:300 dilution in 4% BSA/PBS; Merck KGaA) overnight at 4 °C. Following washing, cells were then incubated with Cy3-conjugated anti-mouse IgG secondary antibody (#C2181, 1:200 dilution in 4% BSA/PBS; Sigma-Aldrich) for 1 h at RT. Cell monolayers were then stained for 10 min with 4′,6-diamidino-2-phenylindole (DAPI) (Sigma-Aldrich) and washed in PBS before slide treatment by polyvinyl alcohol mounting medium with 1,4-diazabicyclo[2.2.2]octane (DABCO®) (Sigma-Aldrich). Fluorescent signals were detected using the Eclipse Ni-E microscope (Nikon Instruments BV, Amsterdam, The Netherlands).

[2] = test system: Lhb gene expression; assay: Lhb gene expression by qRT-PCR in LβT2 cells; type: cell-based, mouse; details: 1 µM GnRH + 1 µM antagonist, 24 h, n = 4
Experimental: LβT2 cells were seeded in 24-well plates (2 × 10^5 cells/well) and cultured for 24 h in DMEM supplemented with 10% Charcoal Stripped FBS, 4.5 g/L glucose, 100 IU/mL penicillin, 0.1 mg/mL streptomycin, and 1 mM glutamine (all from Sigma-Aldrich) before treatments. […] Samples were lysed for RNA extraction using TRIzolTM Reagent (Invitrogen) and equal amounts of total RNA were used for cDNA synthesis performed using the iScript reverse transcriptase (BioRad), as previously described. qRT-PCR was carried out in triplicates on the CFX96TM Real-Time PCR Detection System (BioRad) using the following primers pairs: [NT] for mouse Lhb; [NT] for mouse Gapdh. Primer sequences were drawn using the Mus musculus Lhb (NCBI Reference Sequence: NM_008497.2) and Gapdh (NM_008084.3) mRNAs as templates. Gene expression of Lhb was normalized to mouse Gapdh gene expression using the 2^-ΔΔCt method.

[3] = molecular target: T1, GnRH receptor (GnRHR) (Homo sapiens, UniProt P30968); assay: BRET measurement of GnRH-induced intracellular Ca2+ increase in SH-SY5Y/GnRHR cells; type: cell-based; set-up: HA (hemagglutinin); expressed in transfected cells; details: means±SEM, n=6
T1 sequence (P30968 1-328): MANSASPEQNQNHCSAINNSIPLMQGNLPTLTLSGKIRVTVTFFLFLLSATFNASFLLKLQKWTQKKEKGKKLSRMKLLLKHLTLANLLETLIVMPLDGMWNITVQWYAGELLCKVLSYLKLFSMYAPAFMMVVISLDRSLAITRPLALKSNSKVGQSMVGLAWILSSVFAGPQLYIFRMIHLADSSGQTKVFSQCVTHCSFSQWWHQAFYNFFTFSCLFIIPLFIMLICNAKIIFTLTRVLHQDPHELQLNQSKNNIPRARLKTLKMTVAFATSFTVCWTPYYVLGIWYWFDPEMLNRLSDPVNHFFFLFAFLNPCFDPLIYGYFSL
Experimental: (§1) Different transfection protocols were followed, depending on the endpoint to be measured. For BRET experiments, 3 × 10^4 cells were transiently transfected using vectors expressing the cAMP-CAMYEL or the aequorin-Ca^2+ BRET biosensor-encoding cDNA [59], as appropriate, together with the GnRHR-HA-encoding vector. Transfections were performed in a 96-well plate using the Metafectene PRO reagent (Biontex, München, Germany), as previously described. 100 ng of the receptor-encoding vector + 100 ng of the BRET biosensor-encoding vector were used for co-transfecting HEK293 cells, while SH-SY5Y cells were co-transfected using 200 ng of the receptor-encoding vector + 100 ng of the BRET biosensor-encoding vector. 200 ng of the aequorin-Ca^2+ BRET biosensor-encoding cDNA were used for transfecting LβT2 cells. Each sample was prepared in duplicate, cultured for 48 h and serum-starved over-night before experiments.
(§2) To evaluate Ca^2+ increase, cells were incubated in Hank’s Balanced Salt Solution (HBSS) with Ca^2+ and Mg^2+, 1 mM Hepes and 5 µM Coelenterazine H (NanoLight Technologies, a division of Prolume, Ltd., Pinetop, AZ, USA), for 45 minutes, together with Cetrorelix, Ganirelix, Teverelix or vehicle, as appropriate. […] The EC50 was extrapolated from the curve obtained from each cell line. Cells treated by 5 µM of the sarco/endoplasmic reticulum Ca^2+ ATPase enzyme inhibitor, thapsigargin (Tocris Bioscience), served as positive control. Treatment by the vehicle (HBSS) was the negative control and used as a normalizer.
(§3) BRET experiments were performed using a CLARIOstar plate reader equipped by a monocromator (BMG Labtech, Ortenberg, Germany), as previously described.
(§4) Data were plotted on graphs as means ± standard error of means (SEM). The kinetics of intracellular Ca^2+ increase was represented by the BRET biosensor emission after background subtraction (vehicle). […] Data distributions were analyzed by D’Agostino and Pearson normality tests and inhibition of intracellular Ca^2+ increase by different concentrations of antagonist were compared using two-way analysis of variance (ANOVA), followed by Bonferroni post-test or Kruskal-Wallis and proper post-test. cAMP accumulation was represented as acceptor:donor emission ratio (induced BRET changes) after basal subtraction (untreated cells). Dose-response curves were obtained by data interpolation using non-linear regressions and normalized as percentage of the maximal response. EC50s, as well as half-maximal inhibitory concentrations (IC50), were compared by t-test or Mann–Whitney U test, while results obtained by Western blotting and qRT-PCR data were compared by one-way ANOVA followed by Bonferroni post-test. Statistical differences were considered as significant for p < 0.05. These analyses were performed using the GraphPad Prism software (GraphPad Software Inc., San Diego, CA, USA).

[4] = molecular target: T1, GnRH receptor (GnRHR); assay: BRET measurement of GnRH-induced intracellular Ca2+ increase in HEK293/GnRHR cells; type: cell-based; set-up: HA (hemagglutinin); expressed in transfected cells; host or cells: HEK293 (transient co-transfection with BRET biosensor); details: means ± SEM, n = 6
Experimental: as §1, §2, §3, §4

[5] = molecular target: Hemagglutinin-tagged GnRHR (GnRHR-HA) (UniProt P30968)
[6] = molecular target: T2, murine GnRHR (mouse (endogenous in LβT2)) (UniProt Q01776)
T2 sequence: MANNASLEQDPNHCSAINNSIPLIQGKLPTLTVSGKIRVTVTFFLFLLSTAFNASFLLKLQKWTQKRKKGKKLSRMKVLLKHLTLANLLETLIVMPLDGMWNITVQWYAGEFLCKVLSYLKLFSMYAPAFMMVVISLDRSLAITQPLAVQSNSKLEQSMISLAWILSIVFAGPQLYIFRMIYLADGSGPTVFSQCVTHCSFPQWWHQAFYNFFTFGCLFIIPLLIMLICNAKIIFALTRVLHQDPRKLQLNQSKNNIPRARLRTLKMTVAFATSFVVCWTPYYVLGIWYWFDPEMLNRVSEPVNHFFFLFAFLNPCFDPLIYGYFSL

Molecule: CC(=O)N[C@H](Cc1ccc2ccccc2c1)C(=O)N[C@@H](Cc1ccc(Cl)cc1)C(=O)N[C@H](Cc1cccnc1)C(=O)N[C@@H](CO)C(=O)N[C@H](Cc1ccc(O)cc1)C(=O)N[C@H](CCCCNC(N)=O)C(=O)N[C@@H](CC(C)C)C(=O)N[C@@H](CCCCNC(C)C)C(=O)N1CCC[C@H]1C(=O)N[C@H](C)C(N)=O [Teverelix] (Ac-[d2Nal][Phe(4-Cl)][d3Pal]S[dY][d(hCit)]L[Lys(iPr)]P[dA]-NH2)
- effect on GnRH-induced active β-catenin staining [1]: did not result in any decrease of signal
- effect on GnRH-induced Lhb gene expression [2]: inhibited
- AUC of the kinetics of intracellular Ca2+ response ([3]; 3xEC50 GnRH + 1 pM antagonist): 143555±29053
- AUC of the kinetics of intracellular Ca2+ response ([3]; 3xEC50 GnRH + 10 pM antagonist): 128010±27347
- AUC of the kinetics of intracellular Ca2+ response ([3]; 3xEC50 GnRH + 100 pM antagonist): 110248±22209
- AUC of the kinetics of intracellular Ca2+ response ([3]; 3xEC50 GnRH + 1 nM antagonist): 96368±17786
- AUC of the kinetics of intracellular Ca2+ response ([3]; 3xEC50 GnRH + 10 nM antagonist): 81812±12486
- AUC of the kinetics of intracellular Ca2+ response ([3]; 3xEC50 GnRH + 20 nM antagonist): 38199±10646
- AUC of the kinetics of intracellular Ca2+ response ([3]; 3xEC50 GnRH + 100 nM antagonist): 76018±13231
- AUC of the kinetics of intracellular Ca2+ response ([3]; 3xEC50 GnRH + 1 uM antagonist): 5686±3292
- AUC of the kinetics of intracellular Ca2+ response ([4]; 3 × EC50 GnRH + 1 pM antagonist): 85,301 ± 21,321
- AUC of the kinetics of intracellular Ca2+ response ([4]; 3 × EC50 GnRH + 10 pM antagonist): 98,939 ± 27,373
- AUC of the kinetics of intracellular Ca2+ response ([4]; 3 × EC50 GnRH + 100 pM antagonist): 58,864 ± 27,101
- AUC of the kinetics of intracellular Ca2+ response ([4]; 3 × EC50 GnRH + 1 nM antagonist): 81,702 ± 18,920
- AUC of the kinetics of intracellular Ca2+ response ([4]; 3 × EC50 GnRH + 10 nM antagonist): 74,321 ± 17,569
- AUC of the kinetics of intracellular Ca2+ response ([4]; 3 × EC50 GnRH + 75 nM antagonist): 42,401 ± 8974
- AUC of the kinetics of intracellular Ca2+ response ([4]; 3 × EC50 GnRH + 100 nM antagonist): 29,931 ± 8731
- AUC of the kinetics of intracellular Ca2+ response ([4]; 3 × EC50 GnRH + 1 µM antagonist): 4107 ± 3804

Molecule: Cetrorelix acetate (peptide)
- IC50 of inhibition of 3 × EC50 GnRH-induced cAMP accumulation (CAMYEL BRET), HEK293/GnRHR cells [5]: 0.84 nM
- IC50 of inhibition of 3 × EC50 GnRH-induced cAMP accumulation (CAMYEL BRET), SH-SY5Y/GnRHR cells [5]: 1.56 nM

Molecule: Ganirelix acetate (peptide)
- IC50 of inhibition of 3 × EC50 GnRH-induced cAMP accumulation (CAMYEL BRET), HEK293/GnRHR cells [5]: 0.61 nM
- IC50 of inhibition of 3 × EC50 GnRH-induced cAMP accumulation (CAMYEL BRET), SH-SY5Y/GnRHR cells [5]: 16.6 nM

Molecule: Gonadotropin releasing hormone (GnRH) (from UniProt P01148 24-33) (peptide)
- EC50 of GnRH-induced intracellular Ca^2+ accumulation (BRET biosensor), LβT2 cells [6]: 1.8 nM

Molecule: Teverelix (peptide)
- IC50 of inhibition of 3 × EC50 GnRH-induced cAMP accumulation (CAMYEL BRET), HEK293/GnRHR cells [5]: 0.49 nM
- IC50 of inhibition of 3 × EC50 GnRH-induced cAMP accumulation (CAMYEL BRET), SH-SY5Y/GnRHR cells [5]: 62.8 nM
